{"source": "patent US20070249639A1", "about": "“Use of 9H-Purine-2,6-Diamine Derivatives in the Treatment of Proliferative Diseases and Novel 9H-Purine-2,6-Diamine Derivatives” (priority 2004, published 2007)", "target": "T1, human topoisomerase II α (Homo sapiens, UniProt P11388)", "T1 construct": "purchased Professor Neil Osheroff (Vanderbilt University, Nashville, Tenn., USA)", "T1 sequence (P11388 whole entry)": "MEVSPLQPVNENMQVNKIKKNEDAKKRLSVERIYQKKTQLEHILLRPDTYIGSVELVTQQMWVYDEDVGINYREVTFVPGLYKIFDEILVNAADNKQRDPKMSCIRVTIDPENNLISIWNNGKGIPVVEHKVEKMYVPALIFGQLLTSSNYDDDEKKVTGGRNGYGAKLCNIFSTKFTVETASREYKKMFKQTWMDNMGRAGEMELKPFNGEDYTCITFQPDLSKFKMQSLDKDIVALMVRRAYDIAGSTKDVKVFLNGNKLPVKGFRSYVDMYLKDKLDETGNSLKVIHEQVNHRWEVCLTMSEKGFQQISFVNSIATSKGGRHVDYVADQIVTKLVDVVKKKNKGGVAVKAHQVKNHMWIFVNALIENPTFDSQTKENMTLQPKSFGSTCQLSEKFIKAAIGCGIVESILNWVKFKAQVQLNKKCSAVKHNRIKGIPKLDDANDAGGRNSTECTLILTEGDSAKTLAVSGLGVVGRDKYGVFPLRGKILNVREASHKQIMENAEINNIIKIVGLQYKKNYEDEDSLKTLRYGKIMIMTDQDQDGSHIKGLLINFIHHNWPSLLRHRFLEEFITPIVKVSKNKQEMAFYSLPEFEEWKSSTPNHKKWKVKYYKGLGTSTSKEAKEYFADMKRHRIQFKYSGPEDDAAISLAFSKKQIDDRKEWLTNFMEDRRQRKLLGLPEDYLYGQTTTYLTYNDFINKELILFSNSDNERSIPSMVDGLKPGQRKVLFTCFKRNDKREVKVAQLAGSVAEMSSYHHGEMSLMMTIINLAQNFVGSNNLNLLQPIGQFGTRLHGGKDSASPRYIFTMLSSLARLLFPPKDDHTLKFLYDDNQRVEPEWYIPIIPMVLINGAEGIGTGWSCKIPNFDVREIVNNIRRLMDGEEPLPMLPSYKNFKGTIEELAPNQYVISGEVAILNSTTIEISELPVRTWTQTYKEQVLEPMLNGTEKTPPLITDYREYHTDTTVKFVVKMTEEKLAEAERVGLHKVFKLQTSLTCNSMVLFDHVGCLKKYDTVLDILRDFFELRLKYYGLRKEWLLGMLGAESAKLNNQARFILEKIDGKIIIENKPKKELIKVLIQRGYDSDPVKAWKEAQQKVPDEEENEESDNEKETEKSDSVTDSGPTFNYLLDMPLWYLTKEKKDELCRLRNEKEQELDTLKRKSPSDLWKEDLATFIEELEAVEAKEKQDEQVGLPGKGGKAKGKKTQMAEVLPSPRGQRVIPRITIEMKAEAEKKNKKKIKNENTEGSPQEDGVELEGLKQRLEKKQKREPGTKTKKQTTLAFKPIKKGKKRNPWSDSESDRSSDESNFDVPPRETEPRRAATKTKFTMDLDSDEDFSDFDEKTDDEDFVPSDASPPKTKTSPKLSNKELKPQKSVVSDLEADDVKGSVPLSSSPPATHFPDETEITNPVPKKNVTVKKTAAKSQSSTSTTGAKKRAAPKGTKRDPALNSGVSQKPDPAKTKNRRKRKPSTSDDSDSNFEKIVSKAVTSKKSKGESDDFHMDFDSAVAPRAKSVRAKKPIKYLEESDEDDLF", "assay": "Topoisomerase II ATPase assay (Malachite Green)", "format": "biochemical", "conditions": "for inhibition at 10 µM: Percent inhibition @10 μM, Malachite Green assay, read-out: TOPO II inh. (inhibition of the TOPO ATPase activity)", "procedure": "The inhibition of topoisomerase II is measured as follows:\nPurified human topoisomerase II α was purchased from Professor Neil Osheroff (Vanderbilt University—Nashville, Tenn., USA).\nThe pUC18 (Stratagene) plasmid was introduced into Escherichia coil XL-1 (Stratagene) and purified with the HiSpeed Plasmid Purification kit (Qiagen) according to the manufacturer instructions. The purity of the DNA preparations was evaluated spectrophotometrically (OD260/OD280 ratio) and by agarose gel.\nPreparation of the Malachite Green Reagent:\nThree volumes of 0.045% malachite green (Sigma, catalog no. M-9636) diluted in water are mixed for 20 min at room temperature with one volume of 4.2% ammonium molybdate (Axon Lab AG, catalog no. A-2246) diluted in 4 N HCl. After mixing, Triton X-100 (Merck, catalog no. 1.12298) is added to a final concentration of 0.01%. The solution is filtered at 0.2 μm and stored at room temperature in the dark.\nATP hydrolysis was monitored by measuring the production of inorganic phosphate released during the catalytic cycle of topoisomerase II α with acidic molybdate and malachite green (Lanzetta,et al., An improved assay for nanomole amounts of inorganic phosphate, Anal Biochem 1979;100:95-7). Briefly, human topoisomerase II α is pre-incubated at 37° C. for 10 min in 90 μl reaction buffer (10 mM Tris.HCl pH 7.9, 175 mM KCl, 1 mM EDTA, 2 mM DTT, 5 mM MgCl2, 2.5% glycerol) in the presence of the indicated amount of pUC18 and DMSO in F96 maxisorp Nunclmmuno plates (Nunc). The reaction is initiated by the addition of 10 μl ATP at the indicated concentrations and is carried out for 30 min at 37° C. under constant agitation. The reaction is stopped by the addition of 200 μl molybdate/malachite green solution and the absorbance is immediately measured at 630 nm. The OD630 value is measured in the absence of protein for each ATP concentration (background) is subtracted from the value obtained in the presence of enzyme. A standard curve with inorganic phosphate is used to determine the amount of inorganic phosphate produced during the reaction and to ensure that the measures are in the linear range of the assay. The kinetic parameters of the enzymes are determined from measurements (at least in duplicate) of the initial rates at different ATP concentrations. The data are analyzed with GraFit (Erithacus Software).\nThe compounds are tested at 10 μM of concentration to determine their inhibition potential given % of inhibition of the TOPO II ATPase activity.\nFor the determination of the IC50, the procedure is repeated for different concentrations of test compound selected to cover the range of 0% to 100% inhibition and the concentration at which 50% inhibition of topoisomerase II occurs (IC50) for each compound is determined from concentration-inhibition curves in a conventional manner.", "data": [{"compound": "C=Cc1nc2c(NC(C)(C)C)nc(Nc3ccc4ccccc4c3)nc2[nH]1", "note": "[Example 70, N*6*-tert-Butyl-N*2*-naphthalen-2-yl-8-vinyl-9H-purine-2,6-diamine]", "values": [{"measurement": "inhibition at 10 µM", "result": "< 50", "unit": "%"}]}, {"compound": "c1nc2c(NC3CCCCCC3)nc(Nc3ccc4nsnc4c3)nc2[nH]1", "note": "[Example 49, N*2*-Benzo[1,2,5]thiadiazol-5-yl-N*6*-cycloheptyl-9H-purine-2,6-diamine]", "values": [{"measurement": "inhibition at 10 µM", "result": "< 50", "unit": "%"}]}, {"compound": "CCOC(=O)CC(C)Nc1nc(Nc2ccc3ncsc3c2)nc2[nH]c(CC)nc12", "note": "(stereo not drawn) [Example 31, 3-[2-(Benzothiazol-6-ylamino)-8-ethyl-9H-purin-6-ylamino]-butyric acid ethyl ester]", "values": [{"measurement": "inhibition at 10 µM", "result": "< 50", "unit": "%"}]}, {"compound": "Cc1cc2cc(Nc3nc(NC(C)(C)C)c4nc[nH]c4n3)ccc2[nH]1", "note": "[Example 23, N*6*-tert-Butyl-N*2*-(2-methyl-1H-indol-5-yl)-9H-purine-2,6-diamine]", "values": [{"measurement": "inhibition at 10 µM", "result": "< 50", "unit": "%"}]}, {"compound": "COc1cccc(Nc2nc(Nc3ccc4ncsc4c3)nc3[nH]cnc23)c1", "note": "[Example 8, N*2*-Benzothiazol-6-yl-N*6*-(3-methoxy-phenyl)-9H-purine-2,6-diamine]", "values": [{"measurement": "inhibition at 10 µM", "result": "< 50", "unit": "%"}]}, {"compound": "C=C(C=Cc1nc(OCCN2CCOCC2)sc1C)Nc1nc(NC(C)(C)C)c2nc(C3CCCC3)[nH]c2n1", "note": "[Example 40, N*6*-tert-Butyl-8-cyclopentyl-N*2*-{1-methylene-3-[5-methyl-2-(2-morpholin-4-yl-ethoxy)-thiazol-4-yl]-allyl}-9H-purine-2,6-diamine]", "values": [{"measurement": "inhibition at 10 µM", "result": 0, "unit": "%"}]}, {"compound": "CC(=O)c1nc2c(NC(C)(C)C)nc(Nc3ccc4ncsc4c3)nc2[nH]1", "note": "[Example 45, 1-[2-(Benzothiazol-6-ylamino)-6-tert-butylamino-9H-purin-8-yl]-ethanone]", "values": [{"measurement": "inhibition at 10 µM", "result": "< 50", "unit": "%"}]}, {"compound": "COc1ccc2cc(Nc3nc(NC(C)(C)C)c4nc[nH]c4n3)ccc2c1", "note": "[Example 21, N*6*-tert-Butyl-N*2*-(6-methoxy-naphthalen-2-yl)-9H-purine-2,6-diamine]", "values": [{"measurement": "inhibition at 10 µM", "result": "≥ 80", "unit": "%"}]}, {"compound": "c1cnc2ccc(Nc3nc(Nc4ccc5ncccc5c4)c4nc[nH]c4n3)cc2c1", "note": "[Example 10, N*2*,N*6*-Di-quinolin-6-yl-9H-purine-2,6-diamine]", "values": [{"measurement": "inhibition at 10 µM", "result": "< 50", "unit": "%"}]}, {"compound": "c1cnc2ccc(Nc3nc(NC4CCCCCC4)c4nc[nH]c4n3)cc2c1", "note": "[Example 67, N*6*-Cycloheptyl-N*2*-quinolin-6-yl-9H-purine-2,6-diamine]", "values": [{"measurement": "inhibition at 10 µM", "result": "< 50", "unit": "%"}]}, {"compound": "CCc1nc2c(NC(C)(C)C)nc(Nc3ccc4nc(SC)sc4c3)nc2[nH]1", "note": "[Example 36, N*6*-tert-Butyl-8-ethyl-N*2*-(2-methylsulfanyl-benzothiazol-6-yl)-9H-purine-2,6-diamine]", "values": [{"measurement": "IC50", "result": 900, "unit": "nM"}, {"measurement": "inhibition at 10 µM", "result": "≥ 80", "unit": "%"}]}, {"compound": "Cc1ccc2cc(Nc3nc(NC(C)(C)C)c4nc[nH]c4n3)ccc2n1", "note": "[Example 16, N*6*-tert-Butyl-N*2*-(2-methyl-quinolin-6-yl)-9H-purine-2,6-diamine]", "values": [{"measurement": "inhibition at 10 µM", "result": "50 to 65", "unit": "%"}]}, {"compound": "CC(C)(C)Nc1nc(Nc2ccc3cc(OCCN4CCOCC4)ccc3c2)nc2[nH]cnc12", "note": "[Example 22, N*6*-tert-Butyl-N*2*-[6-(2-morpholin-4-yl-ethoxy)-naphthalen-2-yl]-9H-purine-2,6-diamine]", "values": [{"measurement": "IC50", "result": 1800, "unit": "nM"}, {"measurement": "inhibition at 10 µM", "result": "≥ 80", "unit": "%"}]}, {"compound": "CC(C)(Cc1ccc(F)cc1)Nc1nc(Nc2ccc3ncccc3c2)nc2[nH]cnc12", "note": "[Example 56, N*6*-[2-(4-Fluoro-phenyl)-1,1-dimethyl-ethyl]-N*2*-quinolin-6-yl-9H-purine-2,6-diamine]", "values": [{"measurement": "inhibition at 10 µM", "result": "< 50", "unit": "%"}]}, {"compound": "c1csc(-c2ccc(Nc3nc(NC4CCCCCC4)c4nc[nH]c4n3)cc2)n1", "note": "[Example 2, N*6*-Cycloheptyl-N*2*-(4-thiazol-2-yl-phenyl)-9H-purine-2,6-diamine]", "values": [{"measurement": "inhibition at 10 µM", "result": "< 50", "unit": "%"}]}, {"compound": "c1nc2c(NC3CCCCCC3)nc(Nc3ccc4ncsc4c3)nc2[nH]1", "note": "[Example 1, N*2*-Benzothiazol-6-yl-N*6*-cycloheptyl-9H-purine-2,6-diamine]", "values": [{"measurement": "IC50", "result": 8400, "unit": "nM"}, {"measurement": "ATP competitive inhibitor activity", "setting": "OD measured at 630 nm", "result": "ATP competitive inhibitor"}]}, {"compound": "CCc1nc2c(NC(C)CC(N)=O)nc(Nc3ccc4ncsc4c3)nc2[nH]1", "note": "(stereo not drawn) [Example 30, 3-[2-(Benzothiazol-6-ylamino)-8-ethyl-9H-purin-6-ylamino]-butyramide]", "values": [{"measurement": "inhibition at 10 µM", "result": 0, "unit": "%"}]}, {"compound": "CCCc1nc2c(NC(C)(C)C)nc(Nc3ccc4ncsc4c3)nc2[nH]1", "note": "[Example 32, N*2*-Benzothiazol-6-yl-N*6*-tert-butyl-8-propyl-9H-purine-2,6-diamine]", "values": [{"measurement": "inhibition at 10 µM", "result": "< 50", "unit": "%"}]}, {"compound": "CCc1nc2c(N3CCCC3C)nc(Nc3ccc4ncsc4c3)nc2[nH]1", "note": "(stereo not drawn) [Example 29, Benzothiazol-6-yl-[8-ethyl-6-(2-methyl-pyrrolidin-1-yl)-9H-purin-2-yl]-amine]", "values": [{"measurement": "inhibition at 10 µM", "result": "< 50", "unit": "%"}]}, {"compound": "CC(C)Cc1nc2c(NC(C)(C)C)nc(Nc3ccc4ccccc4c3)nc2[nH]1", "note": "[Example 74, N*6*-tert-Butyl-8-isobutyl-N*2*-naphthalen-2-yl-9H-purine-2,6-diamine]", "values": [{"measurement": "inhibition at 10 µM", "result": "< 50", "unit": "%"}]}, {"compound": "Cc1nc2ccc(Nc3nc(NC4CCCCCC4)c4nc[nH]c4n3)cc2s1", "note": "[Example 50, N*6*-Cycloheptyl-N*2*-(2-methyl-benzothiazol-6-yl)-9H-purine-2,6-diamine]", "values": [{"measurement": "inhibition at 10 µM", "result": "50 to 65", "unit": "%"}]}, {"compound": "c1cnc2ccc(Nc3nc(N4CCN(c5cnccn5)CC4)c4nc[nH]c4n3)cc2c1", "note": "[Example 64, Quinolin-6-yl-[6-(2,3,5,6-tetrahydro-[1,2′]bipyrazinyl-4-yl)-9H-purin-2-yl]-amine]", "values": [{"measurement": "inhibition at 10 µM", "result": "< 50", "unit": "%"}]}, {"compound": "CC(C)(C)Nc1nc(Nc2ccc3ccccc3c2)nc2[nH]c(Br)nc12", "note": "[Example 69, 8-Bromo-N*6*-tert-butyl-N*2*-naphthalen-2-yl-9H-purine-2,6-diamine]", "values": [{"measurement": "inhibition at 10 µM", "result": "50 to 65", "unit": "%"}]}, {"compound": "CCc1nc2c(NC(C)(C)C)nc(Nc3ccc4ccccc4c3)nc2[nH]1", "note": "[Example 73, N*6*-tert-Butyl-8-ethyl-N*2*-naphthalen-2-yl-9H-purine-2,6-diamine]", "values": [{"measurement": "inhibition at 10 µM", "result": "< 50", "unit": "%"}]}, {"compound": "c1nc2c(NC3CCCCCC3)nc(Nc3ccc4ncsc4c3)nc2[nH]1", "note": "[Example 66, N*2*-Benzothiazol-6-yl-N*6*-cycloheptyl-9H-purine-2,6-diamine]", "values": [{"measurement": "inhibition at 10 µM", "result": "< 50", "unit": "%"}]}, {"compound": "Cc1nc2cc(Nc3nc(NC(C)(C)C)c4nc[nH]c4n3)ccc2s1", "note": "[Example 17, N*6*-tert-Butyl-N*2*-(2-methyl-benzothiazol-5-yl)-9H-purine-2,6-diamine]", "values": [{"measurement": "inhibition at 10 µM", "result": "< 50", "unit": "%"}]}, {"compound": "c1ccc(C(Nc2nc(Nc3ccc4ncsc4c3)nc3[nH]cnc23)c2ccccc2)cc1", "note": "[Example 11, N*6*-Benzhydryl-N*2*-benzothiazol-6-yl-9H-purine-2,6-diamine]", "values": [{"measurement": "inhibition at 10 µM", "result": "< 50", "unit": "%"}]}, {"compound": "CCc1nc2c(NC(C)(C)C)nc(Nc3ccc4nc(OCCN5CCOCC5)sc4c3)nc2[nH]1", "note": "[Example 37, N*6*-tert-Butyl-8-ethyl-N*2*-[2-(2-morpholin-4-yl-ethoxy)-benzothiazol-6-yl]-9H-purine-2,6-diamine]", "values": [{"measurement": "inhibition at 10 µM", "result": "≥ 80", "unit": "%"}]}, {"compound": "C=C(C=Cc1nc(OCCN2CCOCC2)sc1C)Nc1nc(NC(C)(C)C)c2nc(C(C)C)[nH]c2n1", "note": "[Example 38, N*6*-tert-Butyl-8-isopropyl-N*2*-{1-methylene-3-[5-methyl-2-(2-morpholin-4-yl-ethoxy)-thiazol-4-yl]-allyl}-9H-purine-2,6-diamine]", "values": [{"measurement": "inhibition at 10 µM", "result": "< 50", "unit": "%"}]}, {"compound": "Cc1nc2ccc(Nc3nc(NC(C)(C)Cc4ccc(F)cc4)c4nc[nH]c4n3)cc2s1", "note": "[Example 58, N*6*-[2-(4-Fluoro-phenyl)-1,1-dimethyl-ethyl]-N*2*-(2-methyl-benzothiazol-6-yl)-9H-purine-2,6-diamine]", "values": [{"measurement": "inhibition at 10 µM", "result": "< 50", "unit": "%"}]}]}
